What was measured:
[1] = tested on: control sera (pooled serum of ten healthy LUMC hospital workers; commercial negative donor pooled serum from the Dutch bloodbank); assay type: binding, human; design: Binding of Control serum LUMC to linear peptides / Binding of Control serum Blood-bank to linear peptides / Binding of Control serum LUMC to looped peptides / Binding of Control Serum Blood-Bank to Looped peptides / Binding of Control serum LUMC to linear peptides of the protein M of SARS-CoV Urbani / Binding of Control serum Blood-bank to linear peptides of the protein M of SARS-CoV Urbani / Binding of Control serum LUMC to looped peptides of the protein M of SARS-CoV Urbani / Binding of Control Serum Blood-Bank to Looped peptides of the protein M of SARS-CoV Urbani: unit not given here
[2] = tested on: antibodies in sera from SARS patients (sera 1a, 1b, 2, 6, 37, 62, London, SARS-yellow, SARS-green); assay type: binding, human; design: Binding of serum 6 to linear peptides of protein X1 of SARS-CoV Urbani / Binding of serum 37 to linear peptides of protein X1 of SARS-CoV Urbani / Binding of serum 6 to looped/cyclic peptide (PEPSCAN-ELISA) / Binding of serum 37 to looped/cyclic peptide (PEPSCAN-ELISA) / Binding of serum 37 to looped/cyclic peptides of protein X1 of SARS-CoV Urbani / Binding of serum 6 to linear peptides of protein X2 / Binding of serum 37 to linear peptides of protein X2 / Binding of serum 37 to looped/cyclic peptides of protein X2 of SARS-CoV Urbani / Binding of serum 6 to linear peptides of protein M of SARS-CoV Urbani / Binding of serum 37 to linear peptides of protein M of SARS-CoV Urbani / Binding of serum 6 to looped/cyclic peptides of protein M of SARS-CoV Urbani / Binding of serum 37 to looped/cyclic peptides of protein M of SARS-CoV Urbani / Binding of serum 6 to linear peptides of protein X3 of SARS-CoV Urbani / Binding of serum 37 to linear peptides of protein X3 of SARS-CoV Urbani / Binding of serum 37 to looped/cyclic peptides of protein X3 of SARS-CoV Urbani / Binding of serum 6 to linear peptides of protein X4 of SARS-CoV Urbani / Binding of serum 37 to linear peptides of protein X4 of SARS-CoV Urbani / Binding of serum 37 to looped/cyclic peptides of protein X4 of SARS-CoV Urbani / Binding of serum 6 to linear peptides of protein X5 of SARS-CoV Urbani / Binding of serum 37 to linear peptides of protein X5 of SARS-CoV Urbani / Binding of serum 37 to looped/cyclic peptides of protein X5 of SARS-CoV Urbani / Binding of serum 6 to linear peptides of protein N of SARS-CoV Urbani / Binding of serum 37 to linear peptides of protein N of SARS-CoV Urbani / Binding of serum 6 to linear peptide (PEPSCAN-ELISA) / Binding of serum 1a to looped/cyclic peptides of protein N of SARS-CoV Urbani / Binding of serum 1b to looped/cyclic peptides of protein N of SARS-CoV Urbani / Binding of serum 2 to looped/cyclic peptides of protein N of SARS-CoV Urbani / Binding of serum 6 to looped/cyclic peptides of protein N of SARS-CoV Urbani / Binding of serum 37 to looped/cyclic peptides of protein N of SARS-CoV Urbani / Binding of serum 62 to looped/cyclic peptides of protein N of SARS-CoV Urbani / Binding of serum London to looped/cyclic peptides of protein N of SARS-CoV Urbani / Binding of serum SARS-green to looped/cyclic peptides of protein N of SARS-CoV Urbani: unit not given here
[3] = tested on: rabbit serum obtained by immunizing a rabbit with the SARS-CoV strain Frankfurt 1; assay type: binding; design: Binding of a rabbit serum to linear peptides / Binding of a rabbit serum to looped peptides / Rabbit serum linear peptides / Rabbit serum looped peptides / Binding of a rabbit serum to linear peptides of protein N of SARS-CoV Urbani (Rabbit serum linear peptides) / Binding of a rabbit serum to looped/cyclic peptides of protein N of SARS-CoV Urbani (Rabbit serum looped peptides): unit not given here

Sequence	Binding of Control Serum Blood-Bank to Looped peptides [1]	Binding of Control serum Blood-bank to linear peptides [1]	Binding of Control serum LUMC to linear peptides [1]	Binding of Control serum LUMC to looped peptides [1]	Binding of serum 1a to linear peptides of protein X1 of SARS-CoV Urbani [2]	Binding of serum 1a to looped/cyclic peptide (PEPSCAN-ELISA) [2]	Binding of serum 1b to linear peptides of protein X1 of SARS-CoV Urbani [2]	Binding of serum 1b to looped/cyclic peptide (PEPSCAN-ELISA) [2]	Binding of serum 2 to linear peptides of protein X1 of SARS-CoV Urbani [2]	Binding of serum 2 to looped/cyclic peptide (PEPSCAN-ELISA) [2]	Binding of serum 6 to linear peptides of protein X1 of SARS-CoV Urbani [2]	Binding of serum 6 to looped/cyclic peptide (PEPSCAN-ELISA) [2]	Binding of serum 37 to linear peptides of protein X1 of SARS-CoV Urbani [2]	Binding of serum 37 to looped/cyclic peptide (PEPSCAN-ELISA) [2]	Binding of serum 62 to linear peptides of protein X1 of SARS-CoV Urbani [2]	Binding of serum 62 to looped/cyclic peptide (PEPSCAN-ELISA) [2]	Binding of serum London to linear peptides of protein X1 of SARS-CoV Urbani [2]	Binding of serum London to looped/cyclic peptide (PEPSCAN-ELISA) [2]	Binding of serum SARS-green to linear peptides of protein X1 of SARS-CoV Urbani [2]	Binding of serum SARS-green to looped/cyclic peptide (PEPSCAN-ELISA) [2]	other results
ALIARCWYLHEGHQT	0.4	0.6	0.4	0.1																	Binding of serum 1a to linear peptides of protein X5 of SARS-CoV Urbani [2]: 0.6; Binding of serum 1a to looped/cyclic peptides of protein X5 of SARS-CoV Urbani [2]: 0.6; Binding of serum 1b to linear peptides of protein X5 of SARS-CoV Urbani [2]: 0.5; Binding of serum 1b to looped/cyclic peptides of protein X5 of SARS-CoV Urbani [2]: 0.1; Binding of serum 2 to linear peptides of protein X5 of SARS-CoV Urbani [2]: 0.6; Binding of serum 2 to looped/cyclic peptides of protein X5 of SARS-CoV Urbani [2]: 0.5; Binding of serum 6 to linear peptides of protein X5 of SARS-CoV Urbani [2]: 0.5; Binding of serum 6 to looped/cyclic peptides of protein X5 of SARS-CoV Urbani [2]: 0.3; Binding of serum 37 to linear peptides of protein X5 of SARS-CoV Urbani [2]: 0.7; Binding of serum 37 to looped/cyclic peptides of protein X5 of SARS-CoV Urbani [2]: 0.4; Binding of serum 62 to linear peptides of protein X5 of SARS-CoV Urbani [2]: 0.7; Binding of serum 62 to looped/cyclic peptides of protein X5 of SARS-CoV Urbani [2]: 0.4; Binding of serum London to linear peptides of protein X5 of SARS-CoV Urbani [2]: 0.6; Binding of serum London to looped/cyclic peptides of protein X5 of SARS-CoV Urbani [2]: 0.1; Binding of serum SARS-green to linear peptides of protein X5 of SARS-CoV Urbani [2]: 0.7; Binding of serum SARS-green to looped/cyclic peptides of protein X5 of SARS-CoV Urbani [2]: 0.0; Binding of serum SARS-yellow to linear peptides of protein X5 of SARS-CoV Urbani [2]: 0.2; Binding of serum SARS-yellow to looped/cyclic peptides of protein X5 of SARS-CoV Urbani [2]: 0.0; Rabbit serum linear peptides [3]: 0.6; Rabbit serum looped peptides [3]: 0.0
ALIYFLQCINACRII	0.5	0.5	0.5	0.3	0.6	0.3	0.6	0.2	0.5	0.4	0.4	0.9	0.7	0.3	0.6	0.3	0.3	1.3	0.1	0.3	Binding of serum SARS-yellow to linear peptides of protein X1 of SARS-CoV Urbani [2]: 0.4; Binding of serum SARS-yellow to looped/cyclic peptide (PEPSCAN-ELISA) [2]: 0.1; Binding of a rabbit serum to linear peptides [3]: 0.7; Binding of a rabbit serum to looped peptides [3]: 0.6
ALNKRWQLALYKGFQ	0.9	0.6	0.6	0.8	0.7	0.8	0.6	0.6	0.5	0.7	0.5	0.6	0.6	0.6	0.5	0.7	0.2	0.3	0.2	0.4	Binding of serum SARS-yellow to linear peptides of protein X1 of SARS-CoV Urbani [2]: 0.4; Binding of serum SARS-yellow to looped/cyclic peptide (PEPSCAN-ELISA) [2]: 0.6; Recognition of the peptide by the rabbit serum [3]: recognized
ALTCTSTHFAFACAD	0.9	0.7	0.8	0.8																	Binding of serum 1a to linear peptides of protein X4 of SARS-CoV Urbani [2]: 0.8; Binding of serum 1a to looped/cyclic peptides of protein X4 of SARS-CoV Urbani [2]: 0.8; Binding of serum 1b to linear peptides of protein X4 of SARS-CoV Urbani [2]: 0.8; Binding of serum 1b to looped/cyclic peptides of protein X4 of SARS-CoV Urbani [2]: 0.7; Binding of serum 2 to linear peptides of protein X4 of SARS-CoV Urbani [2]: 0.5; Binding of serum 2 to looped/cyclic peptides of protein X4 of SARS-CoV Urbani [2]: 0.7; Binding of serum 6 to linear peptides of protein X4 of SARS-CoV Urbani [2]: 0.6; Binding of serum 6 to looped/cyclic peptides of protein X4 of SARS-CoV Urbani [2]: 0.7; Binding of serum 37 to linear peptides of protein X4 of SARS-CoV Urbani [2]: 0.9; Binding of serum 37 to looped/cyclic peptides of protein X4 of SARS-CoV Urbani [2]: 0.9; Binding of serum 62 to linear peptides of protein X4 of SARS-CoV Urbani [2]: 0.9; Binding of serum 62 to looped/cyclic peptides of protein X4 of SARS-CoV Urbani [2]: 0.9; Binding of serum London to linear peptides of protein X4 of SARS-CoV Urbani [2]: 0.8; Binding of serum London to looped/cyclic peptides of protein X4 of SARS-CoV Urbani [2]: 0.3; Binding of serum SARS-green to linear peptides of protein X4 of SARS-CoV Urbani [2]: 0.8; Binding of serum SARS-green to looped/cyclic peptides of protein X4 of SARS-CoV Urbani [2]: 0.8; Binding of serum SARS-yellow to linear peptides of protein X4 of SARS-CoV Urbani [2]: 0.7; Binding of serum SARS-yellow to looped/cyclic peptides of protein X4 of SARS-CoV Urbani [2]: 0.8; Rabbit serum linear peptides [3]: 0.6; Rabbit serum looped peptides [3]: 0.6
ALYKGFQFICNLLLL	0.5	0.6	0.5	0.5	0.6	0.4	0.5	0.3	0.4	0.3	0.4	1.3	0.5	0.4	0.5	0.4	0.2	1.4	0.2	0.2	Binding of serum SARS-yellow to linear peptides of protein X1 of SARS-CoV Urbani [2]: 0.5; Binding of serum SARS-yellow to looped/cyclic peptide (PEPSCAN-ELISA) [2]: 0.4; Binding of a rabbit serum to linear peptides [3]: 0.6; Binding of a rabbit serum to looped peptides [3]: 0.4

Source: US20070128217A1 (priority 2003, published 2007)
